pIC50, pKd: −log10 of the molar value.
Columns and labels:
[1] = test system: rabbit reticulocyte lysate system (RRL); details: cited from earlier work
XeIF4E1a [2] = target: T1, XeIF4E1a (Xenopus laevis, UniProt P48597); assay: time-synchronized fluorescence titration of cap analogue binding; details: for Kas + glycerol XeIF4E1a / Kas − glycerol XeIF4E1a: equilibrium association constant; for Kas − glycerol XeIF4E1a: buffer without glycerol
T1 construct: made in house; host or cells: E. coli Rosetta2(DE3)
From the text: (§1) The time-synchronized fluorescence titration method, widely used to determine the affinity constants of cap–eIF4E complexes [[20,22–26]], measures the quenching of the intrinsic fluorescence of tryptophan residues due to cap binding (Fig. S2). Knowledge of the equilibrium association constant Kas enables the calculation of the free-energy changes involved in the interaction between eIF4E and ligand, according to the standard equation ΔG° = − RTlnKas.
(§2) For human eIF4E1a and eIF4E1b and also for Xenopus eIF4E1a and its mutated forms, measurements were carried out using 0.1 μM protein in 50 mM Hepes/KOH (pH 7.2), 134.5 mM KCl, 0.5 mM EDTA and 1 mM DTT. For Xenopus eIF4E1b(ΔN27), the concentration was 0.2 μM and glycerol was added to the buffer to 10% (v/v) final concentration. […] Fluorescence of measured samples was excited at 280 nm (2.5 nm bandwidth) and detected at 337 nm or 330 nm (4 nm bandwidth), thus reducing the signal originated from the free cap analogues. Measurements were carried out on a LS-55 spectrofluorometer (Perkin Elmer Co.) using freshly prepared proteins, and the fluorescence intensities were corrected for sample dilution and the inner filter effect.
(§3) Equilibrium association constants (Kas) were determined by fitting the theoretical dependence of fluorescence intensity on the total concentration of the cap analogue to the experimental data points, according to the equation described previously (see Ref. [22] and Fig. S2c).
(§4) The final Kas was calculated as a weighted average of 2–6 independent titrations with the weights taken as the reciprocal of the numerical standard deviation squared. Numerical, nonlinear least-squares regression analysis was performed using Origin 6.0 (Microcal Software Inc.). Obtained association constants were used to determine the Gibbs free energy according to the standard equation ΔG° = − RTlnKas.

XeIF4E1a [3] = assay: as above; parameters: species or system Xenopus laevis; details: without glycerol
From the text: as §1, §2, §3, §4

heIF4E1b [4] = target: T2, heIF4E1b (Homo sapiens, UniProt A6NMX2); assay: as above; details: for Kas − glycerol heIF4E1b: equilibrium association constant, buffer without glycerol
T2 construct: made in house; host or cells: E. coli Rosetta2(DE3)
T2 sequence (A6NMX2 1-242): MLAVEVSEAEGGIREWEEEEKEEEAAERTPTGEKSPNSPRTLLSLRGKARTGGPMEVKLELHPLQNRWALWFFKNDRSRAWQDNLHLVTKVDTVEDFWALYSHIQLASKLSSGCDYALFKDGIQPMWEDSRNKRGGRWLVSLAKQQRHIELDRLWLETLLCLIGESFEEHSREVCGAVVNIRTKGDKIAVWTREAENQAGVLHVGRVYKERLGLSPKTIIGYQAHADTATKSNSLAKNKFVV
From the text: as §1, §2, §3, §4

heIF4E1b [5] = assay: as above; parameters: species or system human; details: without glycerol
From the text: as §1, §2, §3, §4

XeIF4E1bΔN27 = assay: as above; parameters: species or system Xenopus laevis; details: 10% glycerol; for Kas + glycerol XeIF4E1bΔN27: equilibrium association constant
From the text: as §1, §2, §3, §4

X4E1a1 (E101S) = target: T3, X4E1a1 (E101S) (Xenopus laevis, UniProt P48597, E101S); assay: fluorescence titration, XeIF4E1a mutant; assay type: binding; details: mutant (E101S) of XeIF4E1a
T3 construct: made in house; host or cells: E. coli Rosetta2(DE3)
From the text: (§5) We tested the effect on cap-binding activity of these positions in the fluorescence assay with six mutated recombinant versions of Xenopus eIF4E1a (Fig. S4). The amino acids were introduced in XeIF4E1a sequentially in the order: E101S/K102R/S195A/M82S/T206L/T207S (numbering of the XeIF4E1a sequence is shifted backward by 4 amino acids relative to XeIF4E1b). […] The biggest contribution to the weaker cap binding of XeIF4E1a, in each case about 20%, resulted from changing Glu101 to Ser and Thr206 to Leu coupled with Thr207 to Ser, with the remaining mutations having only minor effects. […] Glu101 is a solvent-accessible amino acid and is proximal to Trp98 in the S3-S4 loop. […] Attenuation of the cap-binding affinity of XeIF4E1a resulting from mutating Thr206 and Thr207 is consistent with our results mentioned above showing significant influence of C-terminal loop residues on binding phosphate and the second nucleotide.
(§6) For human eIF4E1a and eIF4E1b and also for Xenopus eIF4E1a and its mutated forms, measurements were carried out using 0.1 μM protein in 50 mM Hepes/KOH (pH 7.2), 134.5 mM KCl, 0.5 mM EDTA and 1 mM DTT. For Xenopus eIF4E1b(ΔN27), the concentration was 0.2 μM and glycerol was added to the buffer to 10% (v/v) final concentration. […] The gradually increasing concentration of cap analogue quenches protein fluorescence without shifting the spectrum maximum, while at high concentrations, the fluorescence signal of free cap analogue dominates over the fluorescence from other solution components including free eIF4E and eIF4E in complex with cap (Fig. S2a). Fluorescence of measured samples was excited at 280 nm (2.5 nm bandwidth) and detected at 337 nm or 330 nm (4 nm bandwidth), thus reducing the signal originated from the free cap analogues. Measurements were carried out on a LS-55 spectrofluorometer (Perkin Elmer Co.) using freshly prepared proteins, and the fluorescence intensities were corrected for sample dilution and the inner filter effect.
(§7) Equilibrium association constants (Kas) were determined by fitting the theoretical dependence of fluorescence intensity on the total concentration of the cap analogue to the experimental data points, according to the equation described previously (see Ref. [22] and Fig. S2c). […] Along with Kas and the concentration of the active protein [P0^act], other parameters such as fL and ∆f = fPact − fPL are also gained from the fit, where fL represents the fluorescence efficiency of free cap analogue and ∆f represents the difference between the fluorescence efficiencies of the apo-protein and the complex (Fig. S2c).
as §4

X4E1a1’ (K102R) = target: T4, X4E1a1’ (K102R) (Xenopus laevis, UniProt P48597, K102R); assay: fluorescence titration, XeIF4E1a mutant; assay type: binding; details: mutant (K102R) of XeIF4E1a
T4 construct: made in house; host or cells: E. coli Rosetta2(DE3)
From the text: as §5, §6, §7, §4

X4E1a2 (E101S/K102R) = target: T5, X4E1a2 (E101S/K102R) (Xenopus laevis, UniProt P48597, E101S/K102R); assay: fluorescence titration, XeIF4E1a mutant; assay type: binding; details: mutant (E101S/K102R) of XeIF4E1a
T5 construct: made in house; host or cells: E. coli Rosetta2(DE3)
From the text: as §5, §6, §7, §4

[6] = target: T6, X4E1a3 (E101S/K102R/S195A) (Xenopus laevis, UniProt P48597, E101S/K102R/S195A); assay: fluorescence titration, XeIF4E1a mutant; assay type: binding; details: mutant (E101S/K102R/S195A) of XeIF4E1a
T6 construct: made in house; host or cells: E. coli Rosetta2(DE3)
From the text: as §5, §6, §7, §4

[7] = target: T7, X4E1a4 (E101S/K102R/S195A/M82S) (Xenopus laevis, UniProt P48597, E101S/K102R/M82S/S195A); assay: fluorescence titration, XeIF4E1a mutant; assay type: binding; details: mutant (E101S/K102R/S195A/M82S) of XeIF4E1a
T7 construct: made in house; host or cells: E. coli Rosetta2(DE3)
From the text: as §5, §6, §7, §4

[8] = target: T8, X4E1a6 (E101S/K102R/S195A/M82S/T206L/T207S) (Xenopus laevis, UniProt P48597, E101S/K102R/M82S/S195A/T206L/T207S); assay: fluorescence titration, XeIF4E1a mutant; assay type: binding; details: for Kas X4E1a6: mutant (E101S/K102R/S195A/M82S/T206L/T207S) of XeIF4E1a
T8 construct: made in house; host or cells: E. coli Rosetta2(DE3)
From the text: as §5, §6, §7, §4

heIF4E1a [9] = target: T9, heIF4E1a (Homo sapiens, UniProt P06730); parameters: method as in PMID 17369309; details: equilibrium association constant; buffer without glycerol; footnote b; cited from earlier work
T9 construct: made in house; host or cells: E. coli Rosetta2(DE3)

in vitro translation = test system: in vitro translation; parameters: method as in PMID 10387101; details: Cai et al.; read-out: IC50 (inhibitory potency); cited from earlier work
eIF4E1a = target: eIF4E1a; parameters: method as in PMID 19351181; details: Ghosh et al.; cited from earlier work
heIF4E1a [10] = target: T9, heIF4E1a; assay: time-synchronized fluorescence titration of cap analogue binding; details: change relative to m^7GTP; without glycerol
From the text: as §1, §2, §3, §4

[11] = change relative to m^7GTP, without glycerol

T1 sequence (P48597 whole entry): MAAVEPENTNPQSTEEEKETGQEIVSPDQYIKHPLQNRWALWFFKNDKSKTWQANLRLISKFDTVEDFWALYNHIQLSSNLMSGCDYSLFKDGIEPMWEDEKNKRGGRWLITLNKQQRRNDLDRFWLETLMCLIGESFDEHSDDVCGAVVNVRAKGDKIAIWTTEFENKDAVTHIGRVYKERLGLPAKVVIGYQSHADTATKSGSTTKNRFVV
T9 sequence (P06730 whole entry): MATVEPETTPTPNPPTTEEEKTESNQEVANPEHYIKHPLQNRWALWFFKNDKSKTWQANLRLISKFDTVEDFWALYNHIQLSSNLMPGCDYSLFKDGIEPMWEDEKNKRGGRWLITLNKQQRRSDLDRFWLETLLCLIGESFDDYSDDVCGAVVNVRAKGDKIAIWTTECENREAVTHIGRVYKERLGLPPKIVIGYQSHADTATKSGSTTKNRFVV
T8 sequence (P48597 whole entry M82S/E101S/K102R/S195A/T206L/T207S): as the sequence (P48597 whole entry) above, with M82S, E101S, K102R, S195A, T206L, T207S counted along it
T7 sequence (P48597 whole entry M82S/E101S/K102R/S195A): as the sequence (P48597 whole entry) above, with M82S, E101S, K102R, S195A counted along it
T4 sequence (P48597 whole entry K102R): as the sequence (P48597 whole entry) above, with K102R counted along it
T3 sequence (P48597 whole entry E101S): as the sequence (P48597 whole entry) above, with E101S counted along it
T5 sequence (P48597 whole entry E101S/K102R): as the sequence (P48597 whole entry) above, with E101S, K102R counted along it
T6 sequence (P48597 whole entry E101S/K102R/S195A): as the sequence (P48597 whole entry) above, with E101S, K102R, S195A counted along it

| SMILES | Kas + glycerol XeIF4E1a (XeIF4E1a [2]; 10% glycerol) [μM^− 1] | Kas − glycerol XeIF4E1a (XeIF4E1a [2]) [μM^− 1] | Ratio Kas (h4E1a) to Kas (X4E1a) (XeIF4E1a [3]) | Kas − glycerol heIF4E1b (heIF4E1b [4]) [μM^− 1] | Ratio Kas (h4E1a) to Kas (h4E1b) (heIF4E1b [5]) | Ratio Kas (X4E1a) to Kas (X4E1bΔN27) (XeIF4E1bΔN27) | Kas + glycerol XeIF4E1bΔN27 (XeIF4E1bΔN27) [μM^− 1] | Kas X4E1a1 (X4E1a1 (E101S)) [µM⁻¹] | Kas X4E1a1’ (X4E1a1’ (K102R)) [µM⁻¹] | Kas X4E1a2 (X4E1a2 (E101S/K102R)) [µM⁻¹] | Kas X4E1a3 [6] [µM⁻¹] | Kas X4E1a4 [7] [µM⁻¹] | Kas X4E1a6 [8] [µM⁻¹] | Kas − glycerol heIF4E1a (heIF4E1a [9]) | pIC50 (in vitro translation) | further results |
| --- | --- | --- | --- | --- | --- | --- | --- | --- | --- | --- | --- | --- | --- | --- | --- | --- |
| COC1C(COP(=O)([O-])OP(=O)(O)OP(=O)(O)OCC2OC(n3cnc4c(=O)[nH]c(N)nc43)C(O)C2O)OC(n2c[n+](C)c3c(=O)[nH]c(N)nc32)C1O (centres unmarked) [m^7,3′OGpppG] | – | – | – | – | – | – | – | – | – | – | – | – | – | – | – | inhibitory potency and translational efficiency compared with m^7GpppG [1]: higher inhibitory potency and translational efficiency |
| Cn1c[n+]([C@@H]2O[C@H](COP(=O)(O)OP(=O)([O-])O)[C@@H](O)[C@H]2O)c2nc(N)[nH]c(=O)c21 [m^7GDP] | 5.97 ± 0.37 | 11.42 ± 0.50 | 1.56 | 7.64 ± 0.71 | 2.32 | 2.45 | 2.43 ± 0.15 | 10.1 ± 1.2 | 11.09 ± 0.21 | 8.80 ± 0.16 | 8.53 ± 0.36 | 7.68 ± 0.40 | 6.82 ± 0.17 | 17.76 ± 0.34 ^b μM^− 1 | 5.12 | Kas + glycerol X4E1a6 ([8]; 10% glycerol, Fig. 5d): 3.68 ± 0.10 µM⁻¹ |
| Cn1c[n+]([C@@H]2O[C@H](COP(=O)(O)O)[C@@H](O)[C@H]2O)c2nc(N)[nH]c(=O)c21 [m^7GMP] | 0.256 ± 0.018 | 0.567 ± 0.012 | – | 0.628 ± 0.016 | – | – | – | – | – | – | – | – | – | – | 3.42 | pKd (eIF4E1a): 5.12 |
| Cn1c[n+]([C@@H]2O[C@H](COP(=O)(O)OP(=O)([O-])OP(=O)(O)OC[C@H]3O[C@@H](n4cnc5c(=O)[nH]c(N)nc54)[C@H](O)[C@@H]3O)[C@@H](O)[C@H]2O)c2nc(N)[nH]c(=O)c21 [m^7GpppG] | 2.291 ± 0.065 | 3.98 ± 0.11 | 1.49 | 3.53 ± 0.11 | 1.68 | 2.59 | 0.883 ± 0.032 | 3.38 ± 0.16 | 3.341 ± 0.090 | 2.81 ± 0.10 | 2.417 ± 0.051 | 2.87 ± 0.11 | 2.54 ± 0.15 | 5.94 ± 0.39 ^b μM^− 1 | – | ΔΔG^o + glycerol XeIF4E1a (XeIF4E1a [2]; change relative to m^7GTP, 10% glycerol): 1.351 ± 0.028 kcal/mol; ΔΔG^o − glycerol XeIF4E1a (XeIF4E1a [2]; [11]): 1.382 ± 0.032 kcal/mol; ΔΔG^o − glycerol heIF4E1a (heIF4E1a [10]): 1.423 ± 0.058 kcal/mol; ΔΔG^o − glycerol heIF4E1b (heIF4E1b [4]; [11]): 1.065 ± 0.040 kcal/mol; ΔΔG^o + glycerol XeIF4E1bΔN27 (XeIF4E1bΔN27; change relative to m^7GTP): 1.268 ± 0.037 kcal/mol |
